{"source": "patent US8962600B2", "about": "“Neuroprotective compounds and their use” (The Medical College of Wisconsin, Inc., priority 2009, dated 2015)", "key": {"[1]": {"test_system": "tyrosine hydroxylase (TH)", "assay": "Tyrosine hydroxylase expression in striatum and substantia nigra, Western blot and DAB immunostaining", "assay_type": "in vivo, C57BL/6 mice", "description": "(§1) Six- to 8-week-old C57BL/6 mice weighing 24 to 28 g were housed in standard conditions of constant temperature (22±1° C.), humidity (relative, 30%), and a 12-h light/dark cycle. Mice were allowed free access to food and water. Use of the animals and protocol procedures were approved and supervised by the Committee on Animal Care at Iowa State University (Ames, Iowa). For neurodegeneration studies, mice either received diapocynin (300 mg/kg dose) by oral gavage for 1 day (pre-treatment before MPTP administration), 5 days (co-treatment with MPTP), or 7 days (post-treatment after MPTP).\nDAB immunostaining was performed in striatal and substantia nigra sections as described previously (57). In brief, 1 day or 7 days after final dosing of MPTP, mice were sacrificed and perfused with 4% PFA and post-fixed with PFA and 30% sucrose, respectively. Next, fixed brains were cut into 30 μm sections and kept in 30% sucrose-ethylene glycol solutions at −20° C. On the day of staining, sections were rinsed with PBS and incubated with either anti-TH (rabbit anti-mouse, 1:1800; Calbiochem, Gibstown, N.J.), anti-IBA-1 (goat anti-mouse, 1:1000; Dako), anti-GFAP (mouse anti-mouse, 1:1000; Millipore, Billerica, Mass.), or anti-gp91phox (mouse anti-mouse, 1:500; Santa Cruz Biotechnology) overnight at 4° C. […]"}, "mouse primary microglia": {"test_system": "mouse primary microglia", "assay": "LPS-induced iNOS activation (nitrite, Griess reagent) in primary microglia", "assay_type": "cell-based", "conditions": "diapocynin 10 μM, 30 min pretreatment, LPS 24 hr", "description": "Primary microglia were obtained from 1-2 day old C57/b16 mouse pups. Upon collection, whole brains were kept in ice-cold DMEM-F12 medium containing 10% FBS, 1× sodium pyruvate, 1× NEAAs, 100 units pen/strep, and Q. After collection, the brains were placed in 0.25% trypsin-EDTA and incubated at 37° C., with gentle shaking every 5-10 min. After 30 min, the trypsin was removed, and the brains are washed in warmed medium twice. After washing, medium was added to the brains, and the brains were homogenized using gentle pipetting, starting with a 25 ml pipette and moving to smaller pipette tips as the brains were broken up. When the brains were sufficiently homogenized to a single-cell suspension, they were filtered with a 70 μm nylon filter, which allowed microglia and astrocytes to be collected. The resultant cell suspension was plated in T-75 flasks and allowed to grow for 12-14 days at 37° C., 5% CO2. Microglia were collected using an Easy Sep Magnet (Stemcell Technologies, Vancouver, BC, Canada) (68-69) and plated on poly-D-lysine-coated plates and allowed to attach for 2-4 days before treatment.\nInducible nitric oxide synthase (iNOS or NOS2) activation was assessed by measuring nitrite levels using Griess reagent in a 96-well format (70-72). […] The plate was shaken on a plate shaker for 10 min before being read in a plate reader at 540 nm."}, "MPTP-intoxicated mice": {"test_system": "MPTP-intoxicated mice", "assay": "Rotarod in MPTP-injected mice", "assay_type": "in vivo, C57BL/6 mice", "conditions": "20 rpm; MPTP- and diapocynin-treated mice; 300 mg/kg oral gavage; 5 days after last MPTP injection", "description": "as §1\nTwo types of behavioral tests were performed including an Open Field experiment for testing locomotor activities and a Rotarod experiment to test coordination of movement of mice after MPTP and diapocynin treatment (48, 56). An Open Field activity monitor (model RXYZCM-16; AccuScan, Columbus, Ohio) was used to measure the spontaneous activity of mice. The activity chamber was 40×40×30.5 cm, made of clear PLEXIGLAS® and covered with a PLEXIGLAS® lid with holes for ventilation. Infrared monitoring sensors were located every 2.54 cm along the perimeter (16 infrared beams along each side) and 2.5 cm above the floor. Two additional sets of 16 sensors were located 8.0 cm above the floor on opposite sides. Data were collected and analyzed by a VersaMax Analyzer (model CDA-8, AccuScan). […]"}}}
{"smiles": "COc1cc(C(C)=O)cc(-c2cc(C(C)=O)cc(OC)c2O)c1O", "note": "[diapocynin]", "values": [{"measurement": "expression of TH in striatum and substantia nigra (Western blot)", "setting": "[1]; MPTP- and diapocynin-treated mice, 300 mg/kg oral gavage", "result": "less reduction"}, {"measurement": "loss of TH-positive neurons and terminals in striatum and substantia nigra (TH-DAB immunostaining)", "setting": "[1]; MPTP-treated mice with diapocynin treatment 300 mg/kg oral gavage", "result": "substantially prevented"}, {"measurement": "attenuating LPS-induced iNOS activation, compared with apocynin 100 μM", "setting": "mouse primary microglia", "result": "just as effective"}, {"measurement": "decrease in time spent on Rotarod compared to control mice", "setting": "MPTP-intoxicated mice", "result": "< 25", "unit": "%"}]}
